In patent US20250304623A1, “PEPTIDES FOR INTRACELLULAR DELIVERY” (UNIVERSIDADE DE SANTIAGO DE COMPOSTELA, priority 2022, published 2025):
*: point of attachment. NHNH2 = NN*

Assays:
Assay type in all cases: cell-based
A549 cells = test: RLuc pDNA delivery, robotic library screening, A549
Experimental: Cells were seeded in a 96 well plate the day before the experiment at a concentration of 60,000 cell/mL (100 μL/w) in DMEM+10% FBS+1% Gln-Abt. For robotic library screening, the delivery of pDNA encoding for the expression of Renilla luciferase gene (RLuc, pRL-CMV (Promega, #E2261)) in six different cell lines was performed. Amphihilic molecule stock solutions in DMSO were diluted with DMEM and freshly mixed with pDNA stock solutions in DMEM prior to transfection experiments, to afford several complexes at different amphiphile concentration (2-10 μM) while maintaining a constant final pDNA concentration of 2 ng/μL. The mixture was shaken for 30 min at room temperature before the addition to the cells. The cell medium was aspirated, and cells were washed twice with PBS. Finally, 50 μL of the complex's solution were added to the cells and incubated for 4 h. After the incubation, the medium was replaced by 100 μL of fresh DMEM supplemented with 10% FBS. 72 hours after transfection the DMEM was removed, cells were washed once with HBSS and 90 μL of HBSS were added to each well. Cells were incubated at 37° C. for 30 minutes. Then basal luminescence levels were read in a plate reader. Immediately, 10 μL of coelenterazine h in HBSS were added to each well (5 μM final concentration) and cells were incubated at 37° C. for 10 minutes. Finally, the total luminescence measurement of the plates was performed. Amphiphile transfection efficiency was compared and normalized to Lipofectamine® 2000 efficiency (value of 1 in Tables 1-5 and 7; bold numbers). All experiments were done in triplicate.
(§1) Tables 1-7: RLuc (pDNA) or EGFP (mRNA) expression levels were normalized to Lipofectamine reagents (value=1) and expressed as fold-times signal increase. In the case of siRNA, the siRNA treated cells fluorescence was compared with siMOCK control fluorescence, while Cas9-RNP mediated knockout was measured against the fluorescence of untreated cells. In both siRNA and Cas9-RNP, values are expressed as % fluorescence reduction. Amphiphile concentration was 5 μM in all cases. All experiments were performed in triplicate.
Tables 8-13 show the mean (triplicates) luminescent intensity (RLU) measured after the transfection of RLuc pDNA by different amphiphiles at different concentrations in a variety of cell lines. Background luminescence values, accounted by untransfected control cells, were subtracted for processing.

[1] = tested on: Hek293 cells expressing EGFP; test: Cas9-RNP delivery against EGFP (gene editing, plate reader), Hek293
Experimental: (§2) To generate an EGFP expressing HeLa cell line, HeLa cells were transfected with EGFP pDNA (pEGFP-C1, Clontech) and stable transfectants were selected with 400 μg/mL of G-418 (Millipore). Green clones were selected by epifluorescence microscopy and tested for EGFP expression stability through several passages. […] All other EGFP-expressing cell lines were obtained in a similar way from parent non-EGFP-expressing cell lines.
Cells expressing EGFP were seeded in a 96 well plate the day before the experiment at a concentration of 50,000 cell/mL (100 μL/w) in DMEM+10% FBS+1% Gln-Abt. For robotic library screening, the delivery of Cas9-RNP against EGFP (RNP designed to knock-out the gene encoding for the enhanced green fluorescent protein (EGFP)) was performed. For RNP assembly, 9.2 μL of crRNA and 9.2 μL of tracrRNA were mixed in 211.6 μL of Nuclease-Free Duplex Buffer (IDT), incubated for 5 min at 95° C. and slowly cooled at rt (see I. Lostalé-Seijo, et al. Peptide/Cas9 nanostructures for ribonucleoprotein cell membrane transport and gene edition, Chem. Sci., 2017). Cas9 protein was dissolved in DMEM at a final concentration of 4 μM and equal volumes of the RNA complex and Cas9 were mixed and incubated for 5 min at rt. 75 μL of the corresponding amphiphile concentrations were added to 5 μL of RNP at 2 μM. The mixture was shaken for 30 min at room temperature before the addition to the cells. The cell medium was aspirated, and cells were washed twice with PBS. Cells were covered with 30 μL of DMEM and 20 μL of the RNP/amphiphile complexes were added to the cells (final peptide concentrations=2.5, 5 and 10 μM; final Cas9-RNP concentration=50 nM) and incubated for 4 h. After the incubation, the medium was replaced by 100 μL of fresh DMEM supplemented with 10% FBS. The total EGFP fluorescence was quantified after 72 h in a plate reader (FIG. 2, Table 1 (right) and Table 6). All experiments were done in triplicate. […]
(§3) Tables 26-31 show the mean (triplicates) percentage of gene editing, accounted by GFP fluorescence intensity decrease (% of reduction), measured after the transfection of Cas9-RNP by different amphiphiles at different concentrations in a variety of cell lines. Background values, accounted by untreated control cells, were subtracted for processing.

[2] = tested on: Hek293 cells expressing EGFP; test: EGFP-targeting siRNA delivery (GFP silencing vs siMOCK), Hek293
Experimental: as §2
Cells expressing EGFP were seeded in a 96 well plate the day before the experiment at a concentration of 50,000 cell/mL (100 μL/w) in DMEM+10% FBS+1% Gln-Abt. For robotic library screening, the delivery of an EGFP-targeting siRNA (EGFP: enhanced green fluorescent protein, Ambion® Silencer® GFP Positive Control siRNA (siGFP) (AM4626)) in six different cell lines expressing EGFP was performed. […] The mixture was shaken for 30 min at room temperature (rt) before the addition to the cells. The cell medium was aspirated, and cells were washed twice with PBS. Finally, 50 μL of the solution of siRNA/amphiphile complexes were added to the cells and incubated for 4 h. After transfection, the medium was replaced by 100 μL of fresh DMEM supplemented with 10% FBS. The fluorescence knockdown was quantified after 72 h in a plate reader, by comparison with cells transfected with a non-targeting siRNA control (siMOCK, Silencer™ Negative Control No. 1 siRNA (siMOCK) (AM4611)). EGFP knockdown was compared with Lipofectamine® RNAiMAX silencing efficiency (30-60% depending on cell line, defined with a numeric value in the below tables). All experiments were done in triplicate.
as §1
as §3, with “20-25” for “26-31”, “GFP-silencing,” for “gene editing,”, “by” for “by GFP”, “relative to a non-targeting siRNA (siMOCK) control,” for “(% of reduction),”, “siRNA” for “Cas9-RNP”

Substance | mean luminescent intensity (RLuc pDNA) (A549 cells; Dodecanal, 15 μM) | mean luminescent intensity (RLuc pDNA) (A549 cells; Myristoleyl, 5 μM) | mean luminescent intensity (RLuc pDNA) (A549 cells; Myristoleyl, 10 μM) | mean luminescent intensity (RLuc pDNA) (A549 cells; Myristoleyl, 15 μM) | percentage of gene editing, GFP fluorescence intensity decrease (% of reduction) ([1]; Dodecanal, 5 μM) | percentage of gene editing, GFP fluorescence intensity decrease (% of reduction) ([1]; Myristoleyl, 5 μM) | percentage of GFP-silencing relative to siMOCK ([2]; Dodecanal, 15 μM) | percentage of GFP-silencing relative to siMOCK ([2]; Myristoleyl, 5 μM) | mean luminescent intensity (RLuc pDNA) (A549 cells; Dodecanal, 10 μM) | mean luminescent intensity (RLuc pDNA) (A549 cells; Oleyl, 10 μM) | mean luminescent intensity (RLuc pDNA) (A549 cells; Oleyl, 15 μM) | mean luminescent intensity (RLuc pDNA) (A549 cells; Palmitoleyl, 10 μM) | mean luminescent intensity (RLuc pDNA) (A549 cells; Palmitoleyl, 15 μM) | mean luminescent intensity (RLuc pDNA) (A549 cells; Petroselinyl, 15 μM) | percentage of gene editing, GFP fluorescence intensity decrease (% of reduction) ([1]; Dodecanal, 10 μM) | percentage of GFP-silencing relative to siMOCK ([2]; Dodecanal, 5 μM) | percentage of GFP-silencing relative to siMOCK ([2]; Myristoleyl, 10 μM) | percentage of GFP-silencing relative to siMOCK ([2]; Myristoleyl, 15 μM) | percentage of GFP-silencing relative to siMOCK ([2]; Petroselinyl, 10 μM) | percentage of GFP-silencing relative to siMOCK ([2]; Petroselinyl, 15 μM) | also measured
Ac-RK*LRRK*L-NH2 (Ac-RK(NHNH2)LRRK(NHNH2)L-NH2; not fully specified; printed as Ac-RK*LRRK*L-NH2; also: K*2,K*6: native or modified lysine (ε-amide to a linker)) [Peptide 7.2] | 208 RLU | 5449 RLU | 5343 RLU | 2367 RLU | −21% | −23% | 7% | −8% |  |  |  |  |  |  |  |  |  |  |  |  | mean luminescent intensity (RLuc pDNA) (A549 cells; Dodecanal, 5 μM): 302 RLU; percentage of gene editing, GFP fluorescence intensity decrease (% of reduction) ([1]; Dodecanal, 15 μM): −29%
Ac-RK*LRRK*LRK*-NH2 (Ac-RK(NHNH2)LRRK(NHNH2)LRK(NHNH2)-NH2; not fully specified; printed as Ac-RK*LRRK*LRK*-NH2; also: K*2,K*6,K*9: native or modified lysine (ε-amide to a linker)) [Peptide 9.3] |  | 23125 RLU | 32698 RLU | 6504 RLU | −11% |  | 40% |  | 2898 RLU | 1117 RLU | 1433 RLU | 5800 RLU | 9967 RLU | 5514 RLU | −53% | 19% | 10% | 43% | 3% | −12% | mean luminescent intensity (RLuc pDNA) (A549 cells; Petroselinyl, 10 μM): 4167 RLU; percentage of gene editing, GFP fluorescence intensity decrease (% of reduction) ([1]; Oleyl, 5 μM): 12%; percentage of gene editing, GFP fluorescence intensity decrease (% of reduction) ([1]; Oleyl, 10 μM): −5%; percentage of gene editing, GFP fluorescence intensity decrease (% of reduction) ([1]; Petroselinyl, 5 μM): −12%; percentage of GFP-silencing relative to siMOCK ([2]; Oleyl, 15 μM): 28%; percentage of GFP-silencing relative to siMOCK ([2]; Palmitoleyl, 10 μM): 17%; percentage of GFP-silencing relative to siMOCK ([2]; Palmitoleyl, 15 μM): 36%
Ac-RK*LRRLLRK*-NH2 (Ac-RK(NHNH2)LRRLLRK(NHNH2)-NH2; not fully specified; printed as Ac-RK*LRRLLRK*-NH2; also: K*2,K*9: native or modified lysine (ε-amide to a linker)) [Peptide 9.2] |  | 10365 RLU | 3358 RLU | 1684 RLU | −38% |  | 3% |  | 1215 RLU |  |  |  |  |  | −55% | 14% | 10% | −1% |  |  | 
Ac-RRHK*RLK*RRLK*RL-NH2 (Ac-RRHK(NHNH2)RLK(NHNH2)RRLK(NHNH2)RL-NH2; not fully specified; printed as Ac-RRHK*RLK*RRLK*RL-NH2; also: K*4,K*7,K*11: native or modified lysine (ε-amide to a linker)) [13(Leu-His)] |  |  |  |  |  |  | 57% | 41% |  |  |  |  |  | 2865 RLU |  | 43% | 37% | 9% | 43% | 33% | mean luminescent intensity (RLuc pDNA) (A549 cells; Oleyl, 5 μM): 17058 RLU; percentage of gene editing, GFP fluorescence intensity decrease (% of reduction) ([1]; Myristoleyl, 10 μM): −16%; percentage of gene editing, GFP fluorescence intensity decrease (% of reduction) ([1]; Oleyl, 10 μM): −4%; percentage of gene editing, GFP fluorescence intensity decrease (% of reduction) ([1]; Palmitoleyl, 5 μM): −8%; percentage of gene editing, GFP fluorescence intensity decrease (% of reduction) ([1]; Palmitoleyl, 10 μM): −33%; percentage of gene editing, GFP fluorescence intensity decrease (% of reduction) ([1]; Palmitoleyl, 15 μM): −39%; percentage of gene editing, GFP fluorescence intensity decrease (% of reduction) ([1]; Petroselinyl, 5 μM): 16%; percentage of gene editing, GFP fluorescence intensity decrease (% of reduction) ([1]; Petroselinyl, 10 μM): 7%; percentage of gene editing, GFP fluorescence intensity decrease (% of reduction) ([1]; Petroselinyl, 15 μM): −32%; percentage of GFP-silencing relative to siMOCK ([2]; Dodecanal, 10 μM): 18%; percentage of GFP-silencing relative to siMOCK ([2]; Oleyl, 10 μM): 62%; percentage of GFP-silencing relative to siMOCK ([2]; Oleyl, 15 μM): 21%; percentage of GFP-silencing relative to siMOCK ([2]; Palmitoleyl, 5 μM): 26%; percentage of GFP-silencing relative to siMOCK ([2]; Petroselinyl, 5 μM): 43%
Ac-RRLK*RLK*RRLK*RL-NH2 [Peptide 13.3] | 1174 RLU |  | 2097 RLU |  | 18% | −12% | 48% |  | 964 RLU | 1248 RLU | 1919 RLU | 2647 RLU | 2262 RLU | 2205 RLU | −18% | 52% |  | 25% | 0% | 20% | percentage of gene editing, GFP fluorescence intensity decrease (% of reduction) ([1]; Myristoleyl, 15 μM): −48%; percentage of gene editing, GFP fluorescence intensity decrease (% of reduction) ([1]; Palmitoleyl, 5 μM): −7%; percentage of GFP-silencing relative to siMOCK ([2]; Dodecanal, 10 μM): 44%; percentage of GFP-silencing relative to siMOCK ([2]; Oleyl, 10 μM): 2%; percentage of GFP-silencing relative to siMOCK ([2]; Palmitoleyl, 5 μM): 42%; percentage of GFP-silencing relative to siMOCK ([2]; Petroselinyl, 5 μM): 18%
